Key:
Experiment in all cases: Kinase panel (mobility shift)
Type in all cases: biochemical
AXL = molecular target: T1, AXL (Homo sapiens, UniProt P30530)
T1 sequence (P30530 26-894): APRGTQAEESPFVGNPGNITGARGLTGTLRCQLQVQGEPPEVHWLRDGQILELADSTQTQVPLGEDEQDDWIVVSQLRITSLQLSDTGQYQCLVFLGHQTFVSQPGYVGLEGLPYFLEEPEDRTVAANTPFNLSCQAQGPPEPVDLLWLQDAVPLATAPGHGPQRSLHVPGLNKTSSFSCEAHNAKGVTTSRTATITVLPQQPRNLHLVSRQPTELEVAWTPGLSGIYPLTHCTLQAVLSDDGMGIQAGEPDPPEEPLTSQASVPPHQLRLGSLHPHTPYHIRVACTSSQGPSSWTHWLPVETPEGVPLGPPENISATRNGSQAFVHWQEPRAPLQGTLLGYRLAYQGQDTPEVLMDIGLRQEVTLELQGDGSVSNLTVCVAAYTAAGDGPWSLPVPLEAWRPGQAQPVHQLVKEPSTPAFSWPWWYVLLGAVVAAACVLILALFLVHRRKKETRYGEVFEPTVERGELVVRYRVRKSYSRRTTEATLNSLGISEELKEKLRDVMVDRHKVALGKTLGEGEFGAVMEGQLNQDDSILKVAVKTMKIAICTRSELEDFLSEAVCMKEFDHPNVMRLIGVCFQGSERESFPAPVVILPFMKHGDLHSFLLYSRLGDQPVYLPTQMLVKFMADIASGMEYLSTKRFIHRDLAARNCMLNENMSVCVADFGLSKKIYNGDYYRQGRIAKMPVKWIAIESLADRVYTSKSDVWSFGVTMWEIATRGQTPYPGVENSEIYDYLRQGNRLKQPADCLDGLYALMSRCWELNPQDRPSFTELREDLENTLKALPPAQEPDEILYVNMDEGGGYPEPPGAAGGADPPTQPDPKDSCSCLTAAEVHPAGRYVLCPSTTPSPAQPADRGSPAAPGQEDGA
How it was run: (§1)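 Tested at a single 5 um concentration within a 299-kinase panel, compounds were scored by electrophoretic mobility shift of a fluorescent substrate into product. Categories: A, 95% or greater; B, 90%-94%; C, 80%-89%.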

KIT = KIT (Homo sapiens, UniProt P10721)
How it was run: as §1

LCK = LCK (Homo sapiens, UniProt P06239)
How it was run: as §1

MUSK = molecular target: T2, MUSK (Homo sapiens, UniProt O15146)
T2 sequence (O15146 24-869): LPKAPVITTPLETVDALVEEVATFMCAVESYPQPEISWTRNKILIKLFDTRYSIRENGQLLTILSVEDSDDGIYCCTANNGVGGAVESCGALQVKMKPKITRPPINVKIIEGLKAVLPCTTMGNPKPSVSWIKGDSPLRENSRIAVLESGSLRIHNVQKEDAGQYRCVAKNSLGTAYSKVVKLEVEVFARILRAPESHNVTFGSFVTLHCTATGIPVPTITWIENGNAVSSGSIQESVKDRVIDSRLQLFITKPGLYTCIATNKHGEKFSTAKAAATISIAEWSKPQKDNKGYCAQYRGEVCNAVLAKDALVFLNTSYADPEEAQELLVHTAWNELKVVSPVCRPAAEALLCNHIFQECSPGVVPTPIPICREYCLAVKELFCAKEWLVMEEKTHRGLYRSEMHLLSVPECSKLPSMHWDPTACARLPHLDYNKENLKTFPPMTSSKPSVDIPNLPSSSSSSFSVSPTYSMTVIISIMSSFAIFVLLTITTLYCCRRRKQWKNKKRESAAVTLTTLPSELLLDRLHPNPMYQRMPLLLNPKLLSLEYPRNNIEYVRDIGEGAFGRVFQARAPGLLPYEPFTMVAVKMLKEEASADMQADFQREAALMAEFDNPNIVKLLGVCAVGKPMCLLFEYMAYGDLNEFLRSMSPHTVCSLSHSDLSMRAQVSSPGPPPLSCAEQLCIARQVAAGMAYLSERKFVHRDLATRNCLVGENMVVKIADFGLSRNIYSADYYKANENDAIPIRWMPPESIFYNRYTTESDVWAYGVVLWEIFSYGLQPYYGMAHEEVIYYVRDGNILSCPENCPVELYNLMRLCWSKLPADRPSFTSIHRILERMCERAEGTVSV
How it was run: as §1

P38-a = P38-a (Homo sapiens, UniProt Q16539); settings: at 5 um
How it was run: as §1

PDGFR-b = PDGFR-b (Homo sapiens, UniProt P09619)
How it was run: as §1

TIE2 = TIE2 (Homo sapiens, UniProt Q02763)
How it was run: as §1

Chain of KIT (P10721 26-976, species assumed): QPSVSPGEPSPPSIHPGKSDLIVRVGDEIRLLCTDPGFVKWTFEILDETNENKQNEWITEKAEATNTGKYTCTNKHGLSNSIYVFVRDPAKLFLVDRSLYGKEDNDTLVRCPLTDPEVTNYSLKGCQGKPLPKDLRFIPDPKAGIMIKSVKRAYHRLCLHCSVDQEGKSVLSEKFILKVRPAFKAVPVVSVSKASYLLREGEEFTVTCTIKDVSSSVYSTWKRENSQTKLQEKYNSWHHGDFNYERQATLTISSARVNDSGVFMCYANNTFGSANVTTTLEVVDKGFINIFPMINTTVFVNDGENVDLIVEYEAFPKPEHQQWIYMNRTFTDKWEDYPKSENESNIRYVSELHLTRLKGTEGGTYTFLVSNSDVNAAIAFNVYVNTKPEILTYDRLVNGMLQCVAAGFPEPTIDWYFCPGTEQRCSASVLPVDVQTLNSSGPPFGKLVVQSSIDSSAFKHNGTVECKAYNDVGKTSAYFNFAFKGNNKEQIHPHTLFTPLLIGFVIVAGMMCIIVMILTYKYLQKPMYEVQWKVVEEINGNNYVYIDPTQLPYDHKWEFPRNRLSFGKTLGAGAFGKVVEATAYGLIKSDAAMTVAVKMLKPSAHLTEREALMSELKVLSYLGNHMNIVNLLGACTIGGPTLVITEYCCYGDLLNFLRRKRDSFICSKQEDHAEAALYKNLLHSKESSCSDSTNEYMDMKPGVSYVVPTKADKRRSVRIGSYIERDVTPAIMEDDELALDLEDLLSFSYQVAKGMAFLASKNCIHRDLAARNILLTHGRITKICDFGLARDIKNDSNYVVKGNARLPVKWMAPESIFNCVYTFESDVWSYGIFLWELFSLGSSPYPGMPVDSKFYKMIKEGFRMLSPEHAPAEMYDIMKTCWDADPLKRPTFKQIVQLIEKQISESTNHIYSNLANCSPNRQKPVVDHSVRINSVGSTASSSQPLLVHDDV
Chain of P38-a (Q16539 whole entry): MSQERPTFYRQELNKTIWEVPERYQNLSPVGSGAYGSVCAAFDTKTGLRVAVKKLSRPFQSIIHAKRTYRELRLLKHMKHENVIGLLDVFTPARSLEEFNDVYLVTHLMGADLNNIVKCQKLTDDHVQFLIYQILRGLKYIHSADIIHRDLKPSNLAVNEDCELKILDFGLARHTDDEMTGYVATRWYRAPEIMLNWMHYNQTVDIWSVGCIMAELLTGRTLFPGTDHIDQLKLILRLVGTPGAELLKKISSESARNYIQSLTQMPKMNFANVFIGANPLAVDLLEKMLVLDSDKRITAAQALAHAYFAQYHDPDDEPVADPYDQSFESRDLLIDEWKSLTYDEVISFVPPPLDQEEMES
Chain of PDGFR-b (P09619 33-1106, species assumed): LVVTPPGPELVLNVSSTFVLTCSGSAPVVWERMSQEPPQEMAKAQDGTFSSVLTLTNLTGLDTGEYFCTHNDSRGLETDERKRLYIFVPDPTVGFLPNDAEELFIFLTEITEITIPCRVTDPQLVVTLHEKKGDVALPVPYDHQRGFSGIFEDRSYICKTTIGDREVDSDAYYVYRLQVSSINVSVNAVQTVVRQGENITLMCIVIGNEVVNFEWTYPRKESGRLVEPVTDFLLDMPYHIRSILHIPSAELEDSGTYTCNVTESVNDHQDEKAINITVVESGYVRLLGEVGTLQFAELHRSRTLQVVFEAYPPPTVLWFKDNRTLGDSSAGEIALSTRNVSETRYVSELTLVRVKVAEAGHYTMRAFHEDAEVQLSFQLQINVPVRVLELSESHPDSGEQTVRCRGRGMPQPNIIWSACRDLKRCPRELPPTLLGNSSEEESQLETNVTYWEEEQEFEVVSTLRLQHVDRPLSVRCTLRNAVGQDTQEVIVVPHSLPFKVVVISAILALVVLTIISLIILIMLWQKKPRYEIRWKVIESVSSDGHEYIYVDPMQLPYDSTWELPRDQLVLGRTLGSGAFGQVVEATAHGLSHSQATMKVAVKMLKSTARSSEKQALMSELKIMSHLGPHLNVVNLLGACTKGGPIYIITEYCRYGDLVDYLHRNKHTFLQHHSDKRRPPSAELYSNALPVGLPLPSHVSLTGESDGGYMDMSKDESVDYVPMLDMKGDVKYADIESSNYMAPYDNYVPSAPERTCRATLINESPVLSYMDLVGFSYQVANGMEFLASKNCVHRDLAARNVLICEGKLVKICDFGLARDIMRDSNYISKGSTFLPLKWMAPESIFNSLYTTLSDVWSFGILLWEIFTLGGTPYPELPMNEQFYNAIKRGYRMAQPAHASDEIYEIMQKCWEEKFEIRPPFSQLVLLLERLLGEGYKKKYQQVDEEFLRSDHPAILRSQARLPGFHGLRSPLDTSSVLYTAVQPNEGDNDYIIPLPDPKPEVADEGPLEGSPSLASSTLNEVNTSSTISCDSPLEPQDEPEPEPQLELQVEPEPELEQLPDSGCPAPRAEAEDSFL
Chain of LCK (P06239 whole entry, species assumed): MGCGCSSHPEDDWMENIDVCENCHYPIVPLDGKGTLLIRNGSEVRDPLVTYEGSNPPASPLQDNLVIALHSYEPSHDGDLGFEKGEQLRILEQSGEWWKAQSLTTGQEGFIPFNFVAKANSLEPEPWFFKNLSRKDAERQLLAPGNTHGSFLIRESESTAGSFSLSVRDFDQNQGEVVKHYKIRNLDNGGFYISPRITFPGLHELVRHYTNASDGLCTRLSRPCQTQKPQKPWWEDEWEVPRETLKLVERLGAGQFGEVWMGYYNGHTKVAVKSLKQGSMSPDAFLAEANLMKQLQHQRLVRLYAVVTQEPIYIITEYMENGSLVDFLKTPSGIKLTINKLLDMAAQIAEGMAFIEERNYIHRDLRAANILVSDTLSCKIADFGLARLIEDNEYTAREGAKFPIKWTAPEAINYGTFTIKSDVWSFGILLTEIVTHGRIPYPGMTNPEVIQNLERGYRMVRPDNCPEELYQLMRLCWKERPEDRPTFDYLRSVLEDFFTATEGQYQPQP
Chain of TIE2 (Q02763 23-1124, species assumed): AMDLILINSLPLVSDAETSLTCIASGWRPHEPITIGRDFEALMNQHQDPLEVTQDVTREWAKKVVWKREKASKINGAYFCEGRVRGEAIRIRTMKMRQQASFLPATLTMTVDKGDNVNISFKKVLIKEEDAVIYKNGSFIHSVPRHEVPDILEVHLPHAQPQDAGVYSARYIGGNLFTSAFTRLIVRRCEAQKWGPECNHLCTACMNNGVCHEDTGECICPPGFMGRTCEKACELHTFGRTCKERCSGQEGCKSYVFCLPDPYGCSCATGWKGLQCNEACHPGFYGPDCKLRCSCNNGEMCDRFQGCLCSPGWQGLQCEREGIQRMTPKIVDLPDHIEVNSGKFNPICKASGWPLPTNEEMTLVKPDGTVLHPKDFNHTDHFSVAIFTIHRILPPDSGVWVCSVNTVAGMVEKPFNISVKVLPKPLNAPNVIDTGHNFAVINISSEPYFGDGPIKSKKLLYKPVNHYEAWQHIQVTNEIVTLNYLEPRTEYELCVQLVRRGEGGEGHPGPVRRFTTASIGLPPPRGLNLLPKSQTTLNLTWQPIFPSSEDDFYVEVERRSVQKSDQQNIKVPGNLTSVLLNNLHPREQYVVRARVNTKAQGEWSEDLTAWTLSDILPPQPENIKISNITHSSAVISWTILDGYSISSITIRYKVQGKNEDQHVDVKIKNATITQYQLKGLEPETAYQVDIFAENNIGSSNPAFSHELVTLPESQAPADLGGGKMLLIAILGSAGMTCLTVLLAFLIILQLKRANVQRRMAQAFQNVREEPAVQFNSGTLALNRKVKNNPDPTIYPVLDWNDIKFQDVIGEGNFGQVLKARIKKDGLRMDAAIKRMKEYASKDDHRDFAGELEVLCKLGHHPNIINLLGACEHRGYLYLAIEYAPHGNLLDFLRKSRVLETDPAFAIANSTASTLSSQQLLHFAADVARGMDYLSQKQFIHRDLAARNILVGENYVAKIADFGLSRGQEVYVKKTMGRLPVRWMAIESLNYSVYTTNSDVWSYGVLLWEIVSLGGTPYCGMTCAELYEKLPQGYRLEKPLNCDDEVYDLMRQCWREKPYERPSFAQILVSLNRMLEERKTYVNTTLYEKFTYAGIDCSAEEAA

inhibition at 5 µM (AXL) [%] | inhibition at 5 µM (KIT) [%] | inhibition at 5 µM (LCK) [%] | inhibition at 5 µM (MUSK) [%] | inhibition of kinase activity, P38-a (P38-a) | inhibition at 5 µM (PDGFR-b) [%] | inhibition at 5 µM (TIE2) [%] | SMILES
< 50 | < 50 | < 50 | < 50 | D (category D for 50-79) | < 50 | < 50 | CSc1nc(C(=O)Nc2ccc(Oc3ccnc(N)c3Cl)c(F)c2)c(-c2ccc(F)cc2)o1 [Compound 1]
< 50 | < 50 | < 50 | < 50 | D (category D for 50-79) | < 50 | 50 to 79 | CSc1nc(C(=O)Nc2ccc(Oc3cc4cnn(C)c4cc3Br)c(F)c2)c(-c2ccc(F)cc2)o1 [Compound 2]
80 to 89 | 50 to 79 | ≥ 95 | 50 to 79 | E (category E is less than 50%) | < 50 | 50 to 79 | CNC(=O)c1cc(Oc2ccc(NC(=O)c3nc(SC)oc3-c3ccc(F)cc3Cl)cc2)ccn1 [Compound 3]
< 50 | 50 to 79 | 80 to 89 | < 50 | C (C=80%-89% at 5 um) | < 50 | < 50 | CNC(=O)c1cc(Oc2ccc(NC(=O)c3nc(SC)oc3-c3ccc(F)c(F)c3)cc2)ccn1 [Compound 4]
< 50 | < 50 | 50 to 79 | < 50 | E (category E is less than 50%) | < 50 | < 50 | CNC(=O)c1cc(Oc2ccc(NC(=O)c3nc(SC)oc3-c3ccc(Cl)s3)cc2)ccn1 [Compound 5]
80 to 89 | 80 to 89 | ≥ 95 | < 50 | E (category E is less than 50%) | < 50 | 80 to 89 | CNC(=O)c1cc(Oc2ccc(NC(=O)c3nc(SC)oc3-c3ccc(F)cc3F)cc2)ccn1 [Compound 6]
< 50 | < 50 | ≥ 95 | < 50 | E (category E is less than 50%) | < 50 | < 50 | CNC(=O)c1cc(Oc2ccc(NC(=O)c3nc(SC)oc3-c3ccc(OC)cc3)cc2)ccn1 [Compound 7]
90 to 94 | 80 to 89 | 90 to 94 | 50 to 79 | B (B=90%-94% at 5 um) | < 50 | 80 to 89 | CSc1nc(C(=O)Nc2ccc(Oc3ccnc(-c4cnn(C)c4)c3)c(F)c2)c(-c2ccc(F)cc2)o1 [Compound 11]
50 to 79 | 50 to 79 | ≥ 95 | 50 to 79 | D (category D for 50-79) | < 50 | 50 to 79 | CNC(=O)c1cc(Oc2ccc(NC(=O)c3nc(SC)oc3-c3ccc(F)cc3F)cc2F)ccn1 [Compound 12]
80 to 89 | < 50 | 90 to 94 | 50 to 79 | E (category E is less than 50%) | < 50 | 50 to 79 | CNC(=O)c1cc(Oc2ccc(NC(=O)c3nc(S(C)(=O)=O)sc3-c3ccc(F)cc3)cc2F)ccn1 [Compound 13]
< 50 | 50 to 79 | 50 to 79 | 50 to 79 | D (category D for 50-79) | < 50 | 50 to 79 | CNC(=O)c1cc(Oc2ccc(NC(=O)c3nc(NC)oc3-c3ccc(F)cc3)cc2F)ccn1 [Compound 14]
50 to 79 | 50 to 79 | 50 to 79 | < 50 | D (category D for 50-79) | < 50 | < 50 | CNC(=O)c1cc(Oc2ccc(NC(=O)c3nc(OC)oc3-c3ccc(F)cc3)cc2F)ccn1 [Compound 15]
< 50 | < 50 | < 50 | < 50 | E (category E is less than 50%) | < 50 | < 50 | CNC(=O)c1cc(Oc2ccc(NC(=O)c3nc(SC)oc3-c3ccc(F)s3)cc2F)ccn1 [Compound 16]
< 50 | < 50 | < 50 | < 50 | E (category E is less than 50%) | < 50 | < 50 | CNC(=O)c1cc(Oc2ccc(NC(=O)c3nc(NC)oc3-c3ccc(F)s3)cc2F)ccn1 [Compound 17]
< 50 | 50 to 79 | 50 to 79 | < 50 | D (category D for 50-79) | < 50 | 50 to 79 | CNC(=O)c1cc(Oc2c(F)cc(NC(=O)c3nc(NC)sc3-c3ccc(F)cc3)cc2F)ccn1 [Compound 19]
< 50 | < 50 | < 50 | < 50 | E (category E is less than 50%) | < 50 | 50 to 79 | CNC(=O)c1cc(Oc2ccc(NC(=O)c3nc(NC)sc3-c3ccc(F)cc3F)cc2F)ccn1 [Compound 21]
50 to 79 | 50 to 79 | 80 to 89 | < 50 | D (category D for 50-79) | < 50 | 50 to 79 | CNC(=O)c1cc(Oc2ccc(NC(=O)c3nc(NC)sc3-c3ccc(F)cc3C)cc2F)ccn1 [Compound 23]
< 50 | < 50 | 50 to 79 | < 50 | D (category D for 50-79) | < 50 | < 50 | CNC(=O)c1cc(Oc2ccc(NC(=O)c3nc(OC)oc3-c3ccc(F)c(F)c3)cc2F)ccn1 [Compound 24]
< 50 | < 50 | < 50 | < 50 | E (category E is less than 50%) | < 50 | < 50 | CNC(=O)c1cc(Oc2ccc(NC(=O)c3nc(OC)oc3-c3ccc(F)s3)cc2F)ccn1 [Compound 25]
